Laboratory results taken from the supplement of paper PMC10307832.

Columns and labels:
Experiment in all cases: relative viability (nuclei count vs DMSO), 5 days (fraction); higher = more cells survive
[1] = compound: CCn1c(-c2nonc2N)nc2c(C#CC(C)(C)O)ncc(OC[C@H]3CCCNC3)c21 + CS(=O)(=O)N1CCN(Cc2cc3nc(-c4cccc5[nH]ncc45)nc(N4CCOCC4)c3s2)CC1 [Pictilisib] (partner 1 µM)
Summary of the method: (§1)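 Lung cancer cell lines, seeded in 1536-well plates, were treated the following day by pin tool with a single drug or with five library-drug doses (not always all listed) in √10 steps on top of a fixed anchor-drug dose. Cells were fixed and nuclei stained in one step after 5 days, and nuclei were counted. Relative viability is the nuclei count for treated wells divided by that for vehicle wells, reported as medians of duplicate plates.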

[2] = compound: CCn1c(-c2nonc2N)nc2c(C#CC(C)(C)O)ncc(OC[C@H]3CCCNC3)c21 + O=C(CCCCCCC(=O)Nc1ccccc1)NO [Vorinostat] (partner 1 µM)
Summary of the method: as §1

BAM7 + Phenformin = compound: CCOC1=CC=CC=C1N=NC2=C(NN(C2=O)C3=NC(=CS3)C4=CC=CC=C4)C [BAM7] + N=C(N)NC(=N)NCCc1ccccc1 [Phenformin] (partner 250 µM)
Summary of the method: as §1

[3] = compound: CCn1c(-c2nonc2N)nc2c(C#CC(C)(C)O)ncc(OC[C@H]3CCCNC3)c21 + CC(=O)Nc1cccc(-n2c(=O)n(C3CC3)c(=O)c3c(Nc4ccc(I)cc4F)n(C)c(=O)c(C)c32)c1 [Trametinib] (partner 0.02 µM)
Summary of the method: as §1

Cell Line	relative viability ([1]; first compound 0.01 µM)	relative viability ([1]; first compound 0.03162 µM)	relative viability ([1]; first compound 0.1 µM)	relative viability ([1]; first compound 0.3162 µM)	relative viability ([1]; first compound 1 µM)	relative viability ([2]; first compound 0.01 µM)	relative viability ([2]; first compound 0.03162 µM)	relative viability ([2]; first compound 0.1 µM)	relative viability ([2]; first compound 0.3162 µM)	relative viability ([2]; first compound 1 µM)	relative viability (BAM7 + Phenformin; first compound 0.5 µM)	relative viability (BAM7 + Phenformin; first compound 5 µM)	relative viability (BAM7 + Phenformin; first compound 15.81 µM)	relative viability (BAM7 + Phenformin; first compound 50 µM)	relative viability ([3]; first compound 0.01 µM)	relative viability ([3]; first compound 0.03162 µM)	relative viability ([3]; first compound 0.1 µM)	relative viability ([3]; first compound 0.3162 µM)	relative viability ([3]; first compound 1 µM)
HCC-366	0.235	0.214	0.12	0.131	0.218	0.278	0.3	0.329	0.367	0.372	0.576	0.605	0.668	0.594	0.391	0.312	0.364	0.334	0.293
HCC-827	1.18	0.966	0.865	0.916	1.19	0.86	0.866	0.831	0.76	0.834	0.397	0.373	0.453	0.362	0.532	0.5	0.546	0.504	0.462
HOP-62	0.688	0.75	0.703	0.843	0.794	0.635	0.688	0.644	0.555	0.644	0.668	0.867	0.664	0.714	0.366	0.367	0.41	0.387	0.364
IA-LM	0.355	0.316	0.276	0.26	0.168	1.04	0.961	0.953	0.859	1	–	–	–	–	–	–	–	–	–
LC-2-ad	0.303	0.507	0.505	0.385	0.397	0.736	0.715	0.712	0.659	0.69	0.538	0.55	0.582	0.591	0.9	0.93	0.91	0.89	0.933
LCLC-97TM1	–	0.208	0.231	0.21	0.158	0.8	0.722	0.774	0.624	0.664	0.45	0.443	0.43	0.473	0.172	0.232	0.216	0.191	0.198
LCLC-103H	0.591	0.59	0.527	0.622	0.625	0.87	0.752	0.725	0.757	0.81	0.334	0.354	0.336	0.327	0.615	0.686	0.66	0.642	0.675
LK-2	0.509	0.577	0.503	0.589	0.729	0.239	0.291	0.289	0.316	0.321	0.507	0.389	0.466	0.636	0.574	0.878	0.525	0.686	0.869
LOU-NH91	0.547	0.501	0.483	0.504	0.526	0.899	0.828	1	0.767	0.794	0.689	0.795	0.66	0.66	0.795	0.788	0.802	0.695	0.659
LU99A	0.33	0.353	0.294	0.293	0.324	0.52	0.531	0.46	0.453	0.571	0.802	0.819	0.896	0.94	0.517	0.611	0.6	0.524	0.525
LXF-289	0.765	0.798	0.715	0.723	0.793	0.822	0.791	0.737	0.737	0.808	0.556	0.552	0.524	0.516	0.686	0.66	0.703	0.609	0.668
NCI-H23	0.421	0.375	0.373	0.445	0.417	0.559	0.591	0.626	0.558	0.531	0.816	0.76	0.86	0.856	0.373	0.378	0.433	0.369	0.357
NCI-H322M	0.448	0.483	0.341	0.476	0.413	0.75	0.724	0.754	0.702	0.869	0.77	0.805	0.806	0.799	0.546	0.508	0.505	0.433	0.511
NCI-H522	–	–	–	–	–	0.944	0.911	0.853	0.847	0.938	0.671	0.768	0.614	0.712	0.826	0.763	0.783	0.667	0.82
NCI-H1299	0.817	0.954	0.773	0.76	0.753	–	–	–	–	–	–	–	–	–	–	–	–	–	–
NCI-H1563	0.689	0.618	0.686	0.615	0.633	–	–	–	–	–	0.62	0.685	0.654	0.685	–	–	–	–	–
NCI-H1648	–	–	–	–	–	0.591	0.418	0.365	0.367	0.315	–	–	–	–	0.46	0.474	0.481	0.417	0.418
NCI-H1703	0.228	0.254	0.226	0.208	0.224	–	–	–	–	–	–	–	–	–	–	–	–	–	–
NCI-H1792	0.322	0.276	0.252	0.233	0.249	–	–	–	–	–	0.333	0.219	0.274	0.369	0.472	0.424	0.504	0.344	0.387
NCI-H2342	–	–	–	–	–	0.713	0.647	0.579	0.724	0.782	0.59	0.739	0.594	0.521	0.845	0.848	0.87	0.941	0.957
SW 900	–	–	–	–	–	0.524	0.503	0.386	0.312	0.569	0.548	0.544	0.576	0.759	0.635	0.798	0.762	0.545	0.891
